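Values below derive from 48-hour exposures of cells grown in 96-well plates, with endpoints linearly interpolated between the two concentrations bracketing the appropriate inhibition level. GI50 = concentration required for 50% inhibition of growth.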 Active and inactive are the calls of the source. Cut-off read from the data, not from the text of the source: active = GI50 up to about 1.1 µM and inactive = higher.
Tests used:
Assay in all cases: DTP human tumour cell line panel, 48 h
NCI-H522 = system: NCI-H522
OVCAR-4 = system: OVCAR-4
SN12C = system: SN12C
SF-539 = system: SF-539
HOP-92 = system: HOP-92
RXF 393 = system: RXF 393
LOX IMVI = system: LOX IMVI
SNB-75 = system: SNB-75
K562 = system: K562
Malme-3M = system: Malme-3M
ACHN = system: ACHN
HOP-62 = system: HOP-62
SK-MEL-28 = system: SK-MEL-28
UO-31 = system: UO-31
SK-MEL-5 = system: SK-MEL-5
CCRF-CEM = system: CCRF-CEM

Measured: GI50

CN(C)C(=O)OC(Cn1cncn1)c1ccc(Cl)cc1Cl (configuration not stated)
inactive: NCI-H522 53.5 µM | OVCAR-4 > 100 µM | SN12C > 100 µM | SF-539 > 100 µM | HOP-92 > 100 µM | RXF 393 > 100 µM | LOX IMVI > 100 µM | SNB-75 > 100 µM | K562 > 100 µM | Malme-3M > 100 µM | ACHN > 100 µM | HOP-62 > 100 µM | SK-MEL-28 > 100 µM | UO-31 > 100 µM | SK-MEL-5 > 100 µM

COc1ccc(/C=C2\CN(C)Cc3c2nc(N)nc3-c2ccc(OC)cc2)cc1
inactive: NCI-H522 41.3 µM | SN12C > 100 µM | SF-539 > 100 µM | RXF 393 > 100 µM | LOX IMVI 79.4 µM | SNB-75 > 100 µM | K562 70.5 µM | Malme-3M 34.4 µM | ACHN > 100 µM | HOP-62 64.1 µM | SK-MEL-28 > 100 µM | CCRF-CEM 41.5 µM | UO-31 > 100 µM | SK-MEL-5 26.9 µM

CCCCCCCCCCCCCC(=S)N/C=C/OC
inactive: NCI-H522 20.3 µM | OVCAR-4 32.1 µM | SN12C 34.9 µM | SF-539 66.5 µM | HOP-92 25.8 µM | RXF 393 26.9 µM | LOX IMVI 20.5 µM | SNB-75 33.7 µM | Malme-3M 26.6 µM | ACHN 27.5 µM | HOP-62 48 µM | SK-MEL-28 41.7 µM | CCRF-CEM 21.4 µM | UO-31 31 µM | SK-MEL-5 25 µM

COC1(C)CC2N(C(=O)c3ccccc3)N=C(c3ccccc3)CC2(C)O1 (configuration not stated)
inactive: NCI-H522 > 100 µM | OVCAR-4 > 100 µM | SN12C > 100 µM | SF-539 > 100 µM | HOP-92 > 100 µM | LOX IMVI > 100 µM | SNB-75 > 100 µM | K562 88.9 µM | Malme-3M > 100 µM | ACHN > 100 µM | HOP-62 > 100 µM | CCRF-CEM 84.5 µM | UO-31 > 100 µM | SK-MEL-5 > 100 µM

COc1ccc(C2Oc3ccc(O)cc3[C@@H]2C)cc1OC (some centres not stated)
inactive: NCI-H522 27.5 µM | OVCAR-4 97.7 µM | SF-539 > 100 µM | HOP-92 23 µM | RXF 393 58.5 µM | LOX IMVI > 100 µM | SNB-75 30.2 µM | K562 > 100 µM | Malme-3M > 100 µM | ACHN > 100 µM | HOP-62 > 100 µM | SK-MEL-28 > 100 µM | CCRF-CEM 17.5 µM | UO-31 63.1 µM | SK-MEL-5 48.5 µM

NC(=O)N1N=C2c3ccccc3CC[C@@H]2C1c1ccccc1 (some centres not stated)
inactive: NCI-H522 61 µM | SN12C > 100 µM | SF-539 > 100 µM | RXF 393 > 100 µM | LOX IMVI > 100 µM | SNB-75 36.6 µM | K562 61.4 µM | Malme-3M > 100 µM | ACHN > 100 µM | HOP-62 > 100 µM | SK-MEL-28 > 100 µM | CCRF-CEM > 100 µM | UO-31 > 100 µM | SK-MEL-5 88.7 µM

CCCC1(CC(=O)O)OCCc2c1[nH]c1ccccc21 (configuration not stated) [PRODOLIC ACID]
inactive: OVCAR-4 > 100 µM | SN12C > 100 µM | SF-539 > 100 µM | HOP-92 > 100 µM | RXF 393 > 100 µM | LOX IMVI > 100 µM | SNB-75 69.3 µM | K562 > 100 µM | Malme-3M > 100 µM | ACHN > 100 µM | HOP-62 > 100 µM | SK-MEL-28 > 100 µM | CCRF-CEM > 100 µM | UO-31 > 100 µM | SK-MEL-5 > 100 µM

From ChEMBL document CHEMBL1201862, “PubChem BioAssay data set” (2004)
